Columns and labels:
[1] = tested on: C. albicans (strain SC-5134); assay: Colony forming unit (CFU) phototoxicity assay; assay type: cell-based, Candida albicans
Protocol: Colonies Formation Assay: Briefly, the 1 ml of each treatment condition was diluted into 1:10,000, 1:50,000 or 1:100,000 and plated 100 μL onto Sabouraud dextrose agar plate (Becton Dickinson, New Jersey, USA). All plates were incubated at 37° C. and colonies were imaged and counted the following day for each plate/condition.
(§1) Pc 4-Photodynamic Treatment Conditions: The phthalocyanine photosensitizer Pc 4 was kindly provided by Dr. Malcolm E. Kenney (Department of Chemistry, Case Western Reserve University, Cleveland, Ohio, USA). Stock solutions (0.5 mM) of Pc 4 were prepared in N′,N′-dimethylformamide (DMF, ThermoFisher, Waltham, Mass., USA) and stored at 4° C. in the dark. C. albicans cultures were incubated with Pc 4 concentrations ranging from 0.1 to 1.0 μM in 1× PBS containing 10% FBS for at least 1 hr at 37° C. in the dark and subsequently irradiated with red light using a light-emitting diode array (EFOS, Mississauga, Ontario, Canada) at a fluence ranging from 1.0 to 2.0 J/cm^2 (1.0 mW/cm^2, λmax ˜670-675 nm) at room temperature.
Colony forming unit (CFU) phototoxicity assay: CFU assay was done as described by Chandra et al. with minor modifications. […] After 24 hours, colonies were counted by eye, and all the percentage of surviving cells from the Pc 4-PDT cultures was normalized against that of cultures exposed to Pc 4 or light alone. […]

[2] = tested on: C. albicans (strain SC-5134); assay: FUN-1 fluorescence metabolic activity assay (confocal); assay type: cell-based, Candida albicans; settings: 1.0 μM Pc 4, 2.0 J/cm^2, vs cells exposed to Pc 4 but not irradiated
Protocol: as §1, with “temperature. […] The absorbance of the resulting orange solution was measured using a spectrophotometer (Spectronic Genesys 5, Analytical Instrument, Golden Valley, Minn., USA) at 492 nm. […] FUN-1 fluorescence was excited using solid state diode lasers (488 nm) and collected with a 580-650 nm band pass emission filter.” for “temperature.”

[3] = tested on: C. albicans (strain SC-5134); assay: DNA fragmentation by agarose gel electrophoresis; assay type: cell-based, Candida albicans
Protocol: Subsequently, C. albicans total chromosomal DNA was extracted using the MasterPure™ Yeast DNA Purification Kit (Epicentre Biotechnologies, Madison, Wis., USA) per the manufacturer's protocol. Extracted DNA concentrations were determined with a spectrophotometer (Nanodrop™ 3000, ThermoFisher Scientific, Waltham, Mass., USA) at a wavelength range of 260-280 nm. DNA (3.0 μg) was loaded onto a 1.0% (w/v) agarose gel (Bioexpress, Kaysbille, Utah, USA) impregnated with ethidium bromide (ThermoFisher, Waltham, Mass., USA) and subjected to electrophoresis. The gel was subsequently visualized using a UV transilluminator (VersaDoc™, Bio-Rad, Hercules, Calif., USA).

[4] = mice, delivered systemically; cited from earlier work
[5] = tested on: T. rubrum; assay: Clonogenic (CFU) assay after Pc 4-PDT; assay type: cell-based, Trichophyton rubrum; settings: 0-2 μM Pc 4, 2.0 J/cm^2
Protocol: Cells were treated with 0-2 μM of Pc 4 for at least 2 hours before being photoirradiated with 2.0 J/cm^2.
Mycologic cure remains the gold-standard in the evaluation of antifungal therapies and leads to lower recurrence rates. […] Immediately after photoirradiation, treated and control samples were diluted and spread 100 μL onto Sabouraud potato agar plates (Becton Dickinson, New Jersey, USA). All plates were incubated at 28° C. and colonies were counted within 5 days.

[6] = tested on: T. rubrum; assay: XTT reduction assay after Pc 4-PDT; assay type: cell-based, Trichophyton rubrum
Protocol: Terbinafine sensitive (23013) and resistant (MRL666) strains of T. rubrum were grown onto Sabouraud potato agar plate for at least 24 hours at 28° C. Microconidia were separated from most of the hyphae form before treating with Pc 4-PDT.

In the case of CN(C)CCC[Si](C)(C)O[Si]1(O)n2c3c4ccccc4c2N=C2N=C(N=c4c5ccccc5c(n41)=NC1=NC(=N3)c3ccccc31)c1ccccc12 (stereo not shown) [Pc 4, HOSiPcOSi(CH3)2(CH2)3N(CH3)2], the “cell killing / reduction of cell survival (CFU)” value ([1]; 1.0 μM Pc 4, light at 2.0 J/cm^2 (670-675 nm)) is reported as 4 logs, the “effect of photosensitizer alone on cell proliferation and cell death” value ([1]; highest dose of Pc 4, no light, compared to untreated cells) is reported as “neither the highest dose of photosensitizer alone nor light alone affected cell proliferation and cell death” and the FUN-1 fluorescence [2] is reported as “much reduced FUN-1 fluorescence”. The DNA fragmentation ([3]; 0.4 μM Pc 4-PDT) was “clear evidence of DNA degradation”, the DNA fragmentation ([3]; 0.6 μM Pc 4-PDT) was “matched that of the hydrogen peroxide positive control” and the “clearance compared with Photofrin” value [4] was “much more rapidly cleared than Photofrin”. The “survival (CFU)” value ([5]; terbinafine-resistant strain MRL666) was “dose-dependent decrease in the survival”, the “survival (CFU)” value ([5]; terbinafine-sensitive strain 23013) was “dose-dependent decrease in the survival” and the “metabolic activity (XTT)” value ([6]; terbinafine resistant strain MRL666) was “attenuates following Pc 4-PDT”. The “metabolic activity (XTT)” value ([6]; terbinafine sensitive strain 23013) was “attenuates following Pc 4-PDT”.
